{"source": "paper PMC4917279", "about": "(Journal of Medicinal Chemistry, 2016)", "key": {"[1]": {"target": "T1, TLK2 (Homo sapiens, UniProt Q86UE8)", "T1 construct": "purchased DiscoveRx KINOMEscan", "experiment": "KINOMEscan", "type": "binding", "conditions": "read-out: %Ctrl @ 1000 nM"}, "[2]": {"target": "T2, PAK4 (Homo sapiens, UniProt O96013)", "T2 construct": "purchased DiscoveRx KINOMEscan", "experiment": "KINOMEscan", "type": "binding", "conditions": "read-out: %Ctrl @ 1000 nM"}, "[3]": {"target": "T3, IRAK4 (Homo sapiens, UniProt Q9NWZ3)", "T3 construct": "purchased DiscoveRx KINOMEscan", "experiment": "KINOMEscan", "type": "binding", "conditions": "read-out: %Ctrl @ 1000 nM"}, "[4]": {"target": "T4, TNK2 (Homo sapiens, UniProt Q07912)", "T4 construct": "purchased DiscoveRx KINOMEscan", "experiment": "KINOMEscan", "type": "binding", "conditions": "read-out: %Ctrl @ 1000 nM"}, "[5]": {"target": "T5, CLK4 (Homo sapiens, UniProt Q9HAZ1)", "T5 construct": "purchased DiscoveRx KINOMEscan", "experiment": "KINOMEscan", "type": "binding", "conditions": "read-out: %Ctrl @ 1000 nM"}, "[6]": {"target": "T6, CAMK2A (Homo sapiens, UniProt Q9UQM7)", "T6 construct": "purchased DiscoveRx KINOMEscan", "experiment": "KINOMEscan", "type": "binding", "conditions": "read-out: %Ctrl @ 1000 nM"}, "[7]": {"target": "T7, FES (Homo sapiens, UniProt P07332)", "T7 construct": "purchased DiscoveRx KINOMEscan", "experiment": "KINOMEscan", "type": "binding", "conditions": "read-out: %Ctrl @ 1000 nM"}, "[8]": {"target": "T8, CLK2 (Homo sapiens, UniProt P49760)", "T8 construct": "purchased DiscoveRx KINOMEscan", "experiment": "KINOMEscan", "type": "binding", "conditions": "read-out: %Ctrl @ 1000 nM"}, "[9]": {"target": "T9, RAF1 (Homo sapiens, UniProt P04049)", "T9 construct": "purchased DiscoveRx KINOMEscan", "experiment": "KINOMEscan", "type": "binding", "conditions": "read-out: %Ctrl @ 1000 nM"}, "[10]": {"target": "SMYD2 (Homo sapiens, UniProt Q9NRG4)", "sequence (Q9NRG4 whole entry)": "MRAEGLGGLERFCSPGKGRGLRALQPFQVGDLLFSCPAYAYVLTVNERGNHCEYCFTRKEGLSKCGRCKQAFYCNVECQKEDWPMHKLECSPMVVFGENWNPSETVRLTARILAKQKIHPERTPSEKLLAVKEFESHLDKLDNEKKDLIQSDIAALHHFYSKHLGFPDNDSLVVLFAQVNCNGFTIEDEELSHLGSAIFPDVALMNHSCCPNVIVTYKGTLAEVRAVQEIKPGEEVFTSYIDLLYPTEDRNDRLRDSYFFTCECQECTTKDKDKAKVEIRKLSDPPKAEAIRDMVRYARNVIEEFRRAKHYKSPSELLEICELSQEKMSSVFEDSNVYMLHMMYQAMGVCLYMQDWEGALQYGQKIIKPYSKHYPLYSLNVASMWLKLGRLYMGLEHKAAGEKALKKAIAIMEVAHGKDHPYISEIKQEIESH", "experiment": "Western blot of SY46 methylation signal in SMYD2 overexpressing KYSE150 cells, time course", "type": "cell-based", "design": "expressed in transfected cells", "conditions": "10 µM", "description": "3. Figure S2 Validation of AHNAK as SMYD2 substrate\nFigure S2 (A) Overexpression of SMYD2 in KYSE.150 cells. SMYD2 is primarily detected in the cytosol. One SMYD2 overexpressing and one non.overexpressing cell are highlighted by arrows. The methylation signal detected by SY46 is overlapping with the SMYD2 overexpressing cells (B) Western blot analysis of SMYD2 overexpressing or parental KYSE150 cells. SY46 methylation antibody detects a strong increase in methylation signal in the high molecular weight region in SMYD2 overexpressing cells. (Later we discovered AHNAK as the high molecular substrate of around 630 kDa. Due to the high molecular weight of AHNAK and partial degradation different fragments are detected.) (C) Western blot analysis of SMYD2 overexpressing KYSE150 cells treated with DMSO or 10 µM of either AZ505 or (S).4 and harvested after the indicated time points. The methylation signal detected by SY46 was reduced in a time dependent manner. (D) Only expression of SMYD2 leads to specific methylation signals detected by SY46. Western blot analysis of a transient overexpression of wildtype (SMYD2WT /SMYD3WT) or enzymatically point mutants (SMYD2H207A/SMYD3N205A) of either SMYD2 or SMYD3 in MDA.MB231 or HeLa cells. Only in SMYD2WT cells a methylation signal is detected. Expression of green fluorescence protein (GFP) was used as control (E) […]"}, "[11]": {"target": "T10, PRKG1 (Homo sapiens, UniProt Q13976)", "T10 construct": "purchased DiscoveRx KINOMEscan", "experiment": "KINOMEscan", "type": "binding", "conditions": "read-out: %Ctrl @ 1000 nM"}, "[12]": {"target": "T11, MAST1 (Homo sapiens, UniProt Q9Y2H9)", "T11 construct": "purchased DiscoveRx KINOMEscan", "experiment": "KINOMEscan", "type": "binding", "conditions": "read-out: %Ctrl @ 1000 nM"}, "[13]": {"target": "T12, GRK1 (Homo sapiens, UniProt Q15835)", "T12 construct": "purchased DiscoveRx KINOMEscan", "experiment": "KINOMEscan", "type": "binding", "conditions": "read-out: %Ctrl @ 1000 nM"}, "[14]": {"target": "T13, EGFR (Homo sapiens, UniProt P00533)", "T13 construct": "purchased DiscoveRx KINOMEscan", "experiment": "KINOMEscan", "type": "binding", "conditions": "read-out: %Ctrl @ 1000 nM"}, "[15]": {"target": "T14, AXL (Homo sapiens, UniProt P30530)", "T14 construct": "purchased DiscoveRx KINOMEscan", "T14 sequence (P30530 26-894)": "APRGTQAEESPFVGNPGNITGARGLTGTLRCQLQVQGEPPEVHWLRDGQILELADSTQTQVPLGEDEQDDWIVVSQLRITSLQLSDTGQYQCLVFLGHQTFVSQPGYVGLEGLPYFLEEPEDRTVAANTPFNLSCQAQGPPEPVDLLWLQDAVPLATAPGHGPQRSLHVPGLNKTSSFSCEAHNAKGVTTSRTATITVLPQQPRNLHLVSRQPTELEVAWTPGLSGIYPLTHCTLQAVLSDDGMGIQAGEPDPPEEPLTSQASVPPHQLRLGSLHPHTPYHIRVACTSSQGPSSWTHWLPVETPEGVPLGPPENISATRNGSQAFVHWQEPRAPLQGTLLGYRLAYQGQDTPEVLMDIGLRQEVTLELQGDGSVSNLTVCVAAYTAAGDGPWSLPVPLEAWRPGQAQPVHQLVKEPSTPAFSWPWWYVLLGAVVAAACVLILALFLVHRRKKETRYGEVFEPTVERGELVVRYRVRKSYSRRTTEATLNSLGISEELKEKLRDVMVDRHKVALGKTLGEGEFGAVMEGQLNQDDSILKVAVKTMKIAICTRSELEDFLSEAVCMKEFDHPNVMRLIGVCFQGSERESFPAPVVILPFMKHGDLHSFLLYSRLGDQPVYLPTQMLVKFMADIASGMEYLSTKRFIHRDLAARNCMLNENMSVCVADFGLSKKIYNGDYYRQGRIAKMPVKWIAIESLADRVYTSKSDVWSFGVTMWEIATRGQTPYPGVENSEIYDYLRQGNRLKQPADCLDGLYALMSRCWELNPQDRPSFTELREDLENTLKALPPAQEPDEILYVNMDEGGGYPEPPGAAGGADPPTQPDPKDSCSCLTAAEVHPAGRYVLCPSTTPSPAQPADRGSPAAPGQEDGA", "experiment": "KINOMEscan", "type": "binding", "conditions": "read-out: %Ctrl @ 1000 nM"}, "[16]": {"target": "T15, PFCDPK1(P.falciparum) (Plasmodium falciparum, UniProt P62344)", "T15 construct": "purchased DiscoveRx KINOMEscan", "experiment": "KINOMEscan", "type": "binding", "conditions": "read-out: %Ctrl @ 1000 nM"}, "[17]": {"target": "RPS6KA5(Kin.Dom.2-C-terminal) (Homo sapiens, UniProt O75582)", "experiment": "KINOMEscan", "type": "binding", "conditions": "read-out: %Ctrl @ 1000 nM"}, "[18]": {"target": "T16, KIT(L576P) (Homo sapiens, UniProt P10721, L576P)", "T16 construct": "purchased DiscoveRx KINOMEscan", "experiment": "KINOMEscan", "type": "binding", "conditions": "read-out: %Ctrl @ 1000 nM"}, "[19]": {"target": "T17, ERBB3 (Homo sapiens, UniProt P21860)", "T17 construct": "purchased DiscoveRx KINOMEscan", "T17 sequence (P21860 20-1342)": "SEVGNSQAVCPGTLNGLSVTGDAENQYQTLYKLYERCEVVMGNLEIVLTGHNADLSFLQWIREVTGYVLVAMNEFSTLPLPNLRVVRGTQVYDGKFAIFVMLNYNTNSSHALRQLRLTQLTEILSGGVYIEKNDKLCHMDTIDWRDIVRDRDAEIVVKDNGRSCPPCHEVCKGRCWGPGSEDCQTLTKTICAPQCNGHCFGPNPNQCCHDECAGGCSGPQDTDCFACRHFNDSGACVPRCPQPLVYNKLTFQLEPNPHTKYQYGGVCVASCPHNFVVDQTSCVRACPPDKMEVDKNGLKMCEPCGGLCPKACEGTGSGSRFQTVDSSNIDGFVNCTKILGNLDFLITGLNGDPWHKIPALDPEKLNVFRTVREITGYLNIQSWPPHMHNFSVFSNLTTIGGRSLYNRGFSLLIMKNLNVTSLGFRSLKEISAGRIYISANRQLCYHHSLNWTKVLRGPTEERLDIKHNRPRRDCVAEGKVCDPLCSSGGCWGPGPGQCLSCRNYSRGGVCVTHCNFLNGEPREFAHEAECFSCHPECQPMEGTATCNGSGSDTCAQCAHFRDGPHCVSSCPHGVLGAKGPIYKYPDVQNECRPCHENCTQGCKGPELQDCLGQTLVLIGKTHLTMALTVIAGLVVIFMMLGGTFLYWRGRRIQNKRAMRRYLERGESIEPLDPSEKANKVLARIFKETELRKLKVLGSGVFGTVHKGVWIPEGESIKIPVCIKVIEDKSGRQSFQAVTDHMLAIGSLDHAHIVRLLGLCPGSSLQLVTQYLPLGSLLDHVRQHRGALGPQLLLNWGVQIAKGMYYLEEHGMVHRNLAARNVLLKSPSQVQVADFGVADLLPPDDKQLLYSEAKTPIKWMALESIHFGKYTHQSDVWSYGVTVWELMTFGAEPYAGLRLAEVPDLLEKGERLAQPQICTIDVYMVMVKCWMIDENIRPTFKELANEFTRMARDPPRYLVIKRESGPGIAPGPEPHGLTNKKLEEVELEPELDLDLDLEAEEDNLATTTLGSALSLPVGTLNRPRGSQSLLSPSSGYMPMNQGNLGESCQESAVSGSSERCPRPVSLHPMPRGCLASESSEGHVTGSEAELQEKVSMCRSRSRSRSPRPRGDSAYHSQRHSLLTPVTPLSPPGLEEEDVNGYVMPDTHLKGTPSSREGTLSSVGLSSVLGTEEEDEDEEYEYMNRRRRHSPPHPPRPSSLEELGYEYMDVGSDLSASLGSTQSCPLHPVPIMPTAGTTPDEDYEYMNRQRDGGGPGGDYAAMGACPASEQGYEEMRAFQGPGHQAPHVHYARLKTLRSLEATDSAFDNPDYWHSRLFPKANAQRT", "experiment": "KINOMEscan", "type": "binding", "conditions": "read-out: %Ctrl @ 1000 nM"}, "[20]": {"target": "T18, LYN (Homo sapiens, UniProt P07948)", "T18 construct": "purchased DiscoveRx KINOMEscan", "T18 sequence (P07948 whole entry)": "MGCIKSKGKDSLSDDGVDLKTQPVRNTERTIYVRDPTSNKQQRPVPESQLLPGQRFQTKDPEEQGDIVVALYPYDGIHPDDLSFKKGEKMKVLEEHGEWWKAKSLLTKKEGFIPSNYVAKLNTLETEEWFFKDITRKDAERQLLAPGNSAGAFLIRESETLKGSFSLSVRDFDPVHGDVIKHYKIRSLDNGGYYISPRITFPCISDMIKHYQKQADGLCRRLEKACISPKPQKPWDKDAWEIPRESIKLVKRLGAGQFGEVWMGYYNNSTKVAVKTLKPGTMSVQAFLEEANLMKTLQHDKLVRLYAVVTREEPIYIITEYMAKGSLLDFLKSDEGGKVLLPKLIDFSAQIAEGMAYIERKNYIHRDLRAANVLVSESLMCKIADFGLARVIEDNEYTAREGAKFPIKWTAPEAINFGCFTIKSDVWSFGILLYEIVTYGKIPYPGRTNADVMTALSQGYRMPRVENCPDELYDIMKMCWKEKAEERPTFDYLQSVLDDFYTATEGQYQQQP", "experiment": "KINOMEscan", "type": "binding", "conditions": "read-out: %Ctrl @ 1000 nM"}, "[21]": {"target": "T19, ABL2 (Homo sapiens, UniProt P42684)", "T19 construct": "purchased DiscoveRx", "T19 sequence (P42684 whole entry)": "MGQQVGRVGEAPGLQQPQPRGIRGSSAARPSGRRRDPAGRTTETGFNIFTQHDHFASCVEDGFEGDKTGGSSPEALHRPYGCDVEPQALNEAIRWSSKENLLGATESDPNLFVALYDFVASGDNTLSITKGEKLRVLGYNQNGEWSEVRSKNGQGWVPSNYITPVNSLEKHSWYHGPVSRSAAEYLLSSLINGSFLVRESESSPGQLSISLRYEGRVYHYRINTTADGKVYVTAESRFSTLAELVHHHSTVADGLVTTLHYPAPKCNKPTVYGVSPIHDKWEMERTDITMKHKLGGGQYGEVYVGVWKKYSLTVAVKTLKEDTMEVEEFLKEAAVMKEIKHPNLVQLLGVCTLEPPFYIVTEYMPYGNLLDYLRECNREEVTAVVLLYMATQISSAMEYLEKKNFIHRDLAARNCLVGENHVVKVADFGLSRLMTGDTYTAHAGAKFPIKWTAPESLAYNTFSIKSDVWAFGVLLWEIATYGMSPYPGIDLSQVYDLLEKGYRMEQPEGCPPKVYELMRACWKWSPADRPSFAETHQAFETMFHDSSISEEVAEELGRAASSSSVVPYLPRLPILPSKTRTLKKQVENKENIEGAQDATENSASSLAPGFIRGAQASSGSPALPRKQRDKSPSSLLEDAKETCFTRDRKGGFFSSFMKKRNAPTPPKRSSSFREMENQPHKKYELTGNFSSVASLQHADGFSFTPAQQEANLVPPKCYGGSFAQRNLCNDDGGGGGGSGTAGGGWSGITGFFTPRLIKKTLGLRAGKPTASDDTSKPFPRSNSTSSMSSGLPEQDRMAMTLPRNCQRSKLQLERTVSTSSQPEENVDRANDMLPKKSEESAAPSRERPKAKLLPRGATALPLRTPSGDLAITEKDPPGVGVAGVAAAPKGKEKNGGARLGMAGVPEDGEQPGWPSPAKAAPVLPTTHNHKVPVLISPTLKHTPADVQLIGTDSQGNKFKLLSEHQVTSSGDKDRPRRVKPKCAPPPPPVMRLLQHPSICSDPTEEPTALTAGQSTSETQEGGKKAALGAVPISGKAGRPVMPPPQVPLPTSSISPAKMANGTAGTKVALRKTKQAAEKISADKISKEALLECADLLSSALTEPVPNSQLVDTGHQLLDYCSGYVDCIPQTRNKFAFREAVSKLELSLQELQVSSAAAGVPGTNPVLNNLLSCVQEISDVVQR", "experiment": "KINOMEscan", "type": "binding", "conditions": "read-out: %Ctrl @ 1000 nM"}, "[22]": {"target": "T20, MAP4K5 (Homo sapiens, UniProt Q9Y4K4)", "T20 construct": "purchased DiscoveRx KINOMEscan", "experiment": "KINOMEscan", "type": "binding", "conditions": "read-out: %Ctrl @ 1000 nM"}, "[23]": {"target": "T21, MUSK (Homo sapiens, UniProt O15146)", "T21 construct": "purchased DiscoveRx KINOMEscan", "experiment": "KINOMEscan", "type": "binding", "conditions": "read-out: %Ctrl @ 1000 nM"}, "[24]": {"target": "T22, CAMK1 (Homo sapiens, UniProt Q14012)", "T22 construct": "purchased DiscoveRx KINOMEscan", "experiment": "KINOMEscan", "type": "binding", "conditions": "read-out: %Ctrl @ 1000 nM"}, "[25]": {"target": "T23, ABL1-nonphosphorylated (Homo sapiens, UniProt P00519)", "T23 construct": "purchased DiscoveRx", "experiment": "KINOMEscan", "type": "binding", "conditions": "read-out: %Ctrl @ 1000 nM"}, "[26]": {"target": "T24, MKNK2 (Homo sapiens, UniProt Q9HBH9)", "T24 construct": "purchased DiscoveRx KINOMEscan", "experiment": "KINOMEscan", "type": "binding", "conditions": "read-out: %Ctrl @ 1000 nM"}, "[27]": {"target": "T25, RIOK1 (Homo sapiens, UniProt Q9BRS2)", "T25 construct": "purchased DiscoveRx KINOMEscan", "experiment": "KINOMEscan", "type": "binding", "conditions": "read-out: %Ctrl @ 1000 nM"}, "[28]": {"target": "T26, PAK1 (Homo sapiens, UniProt Q13153)", "T26 construct": "purchased DiscoveRx KINOMEscan", "experiment": "KINOMEscan", "type": "binding", "conditions": "read-out: %Ctrl @ 1000 nM"}, "[29]": {"target": "T27, TEC (Homo sapiens, UniProt P42680)", "T27 construct": "purchased DiscoveRx KINOMEscan", "T27 sequence (P42680 whole entry)": "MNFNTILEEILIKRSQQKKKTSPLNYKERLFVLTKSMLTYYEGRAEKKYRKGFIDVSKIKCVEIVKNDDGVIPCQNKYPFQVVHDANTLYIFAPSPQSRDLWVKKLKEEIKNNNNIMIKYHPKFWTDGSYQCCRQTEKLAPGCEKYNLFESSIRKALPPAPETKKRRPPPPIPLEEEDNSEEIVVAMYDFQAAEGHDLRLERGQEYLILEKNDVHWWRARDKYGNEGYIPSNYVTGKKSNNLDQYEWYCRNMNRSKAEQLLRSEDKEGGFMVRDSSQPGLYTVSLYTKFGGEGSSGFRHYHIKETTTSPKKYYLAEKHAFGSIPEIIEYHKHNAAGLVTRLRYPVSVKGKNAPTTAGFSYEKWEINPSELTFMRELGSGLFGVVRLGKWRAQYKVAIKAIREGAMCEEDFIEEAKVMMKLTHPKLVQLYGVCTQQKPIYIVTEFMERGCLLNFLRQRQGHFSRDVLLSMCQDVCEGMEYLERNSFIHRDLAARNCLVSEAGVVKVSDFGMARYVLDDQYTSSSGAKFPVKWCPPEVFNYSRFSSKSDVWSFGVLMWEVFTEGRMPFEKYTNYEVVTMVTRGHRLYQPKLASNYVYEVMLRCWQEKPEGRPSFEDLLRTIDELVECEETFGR", "experiment": "KINOMEscan", "type": "binding", "conditions": "read-out: %Ctrl @ 1000 nM"}, "[30]": {"target": "T28, YANK2 (Homo sapiens, UniProt Q9NY57)", "T28 construct": "purchased DiscoveRx KINOMEscan", "experiment": "KINOMEscan", "type": "binding", "conditions": "read-out: %Ctrl @ 1000 nM"}, "[31]": {"target": "T29, PRKD2 (Homo sapiens, UniProt Q9BZL6)", "T29 construct": "purchased DiscoveRx KINOMEscan", "experiment": "KINOMEscan", "type": "binding", "conditions": "read-out: %Ctrl @ 1000 nM"}, "[32]": {"target": "T30, MST4 (Homo sapiens, UniProt Q9P289)", "T30 construct": "purchased DiscoveRx KINOMEscan", "experiment": "KINOMEscan", "type": "binding", "conditions": "read-out: %Ctrl @ 1000 nM"}, "[33]": {"target": "T31, CAMK2G (Homo sapiens, UniProt Q13555)", "T31 construct": "purchased DiscoveRx KINOMEscan", "experiment": "KINOMEscan", "type": "binding", "conditions": "read-out: %Ctrl @ 1000 nM"}, "[34]": {"target": "T32, CDK8 (Homo sapiens, UniProt P49336)", "T32 construct": "purchased DiscoveRx KINOMEscan", "experiment": "KINOMEscan", "type": "binding", "conditions": "read-out: %Ctrl @ 1000 nM"}, "[35]": {"target": "T33, LOK (Homo sapiens, UniProt O94804)", "T33 construct": "purchased DiscoveRx KINOMEscan", "experiment": "KINOMEscan", "type": "binding", "conditions": "read-out: %Ctrl @ 1000 nM"}, "[36]": {"target": "T34, YSK1 (Homo sapiens, UniProt O00506)", "T34 construct": "purchased DiscoveRx", "experiment": "KINOMEscan", "type": "binding", "conditions": "read-out: %Ctrl @ 1000 nM"}}}
{"compound": "CCN(C(=O)CO)[C@H]1CN(/C(=N\\C#N)Nc2cccc(OC(F)F)c2)N=C1c1ccc(Cl)c(Cl)c1", "note": "[(S)-4]", "values": [{"measurement": "remaining binding at 1 µM", "setting": "[1]", "result": 93, "unit": "%"}, {"measurement": "remaining binding at 1 µM", "setting": "[2]", "result": 91, "unit": "%"}, {"measurement": "remaining binding at 1 µM", "setting": "[3]", "result": 100, "unit": "%"}, {"measurement": "remaining binding at 1 µM", "setting": "[4]", "result": 96, "unit": "%"}, {"measurement": "remaining binding at 1 µM", "setting": "[5]", "result": 94, "unit": "%"}, {"measurement": "remaining binding at 1 µM", "setting": "[6]", "result": 100, "unit": "%"}, {"measurement": "remaining binding at 1 µM", "setting": "[7]", "result": 92, "unit": "%"}, {"measurement": "remaining binding at 1 µM", "setting": "[8]", "result": 97, "unit": "%"}, {"measurement": "remaining binding at 1 µM", "setting": "[9]", "result": 100, "unit": "%"}, {"measurement": "Methylation signal detected by SY46", "setting": "[10]", "result": "reduced"}, {"measurement": "remaining binding at 1 µM", "setting": "[11]", "result": 100, "unit": "%"}, {"measurement": "remaining binding at 1 µM", "setting": "[12]", "result": 83, "unit": "%"}, {"measurement": "remaining binding at 1 µM", "setting": "[13]", "result": 93, "unit": "%"}, {"measurement": "remaining binding at 1 µM", "setting": "[14]", "result": 99, "unit": "%"}, {"measurement": "remaining binding at 1 µM", "setting": "[15]", "result": 91, "unit": "%"}, {"measurement": "remaining binding at 1 µM", "setting": "[16]", "result": 76, "unit": "%"}, {"measurement": "remaining binding at 1 µM", "setting": "[17]", "result": 99, "unit": "%"}, {"measurement": "remaining binding at 1 µM", "setting": "[18]", "result": 85, "unit": "%"}, {"measurement": "remaining binding at 1 µM", "setting": "[19]", "result": 84, "unit": "%"}, {"measurement": "remaining binding at 1 µM", "setting": "[20]", "result": 80, "unit": "%"}, {"measurement": "remaining binding at 1 µM", "setting": "[21]", "result": 88, "unit": "%"}, {"measurement": "remaining binding at 1 µM", "setting": "[22]", "result": 100, "unit": "%"}, {"measurement": "remaining binding at 1 µM", "setting": "[23]", "result": 97, "unit": "%"}, {"measurement": "remaining binding at 1 µM", "setting": "[24]", "result": 85, "unit": "%"}, {"measurement": "remaining binding at 1 µM", "setting": "[25]", "result": 79, "unit": "%"}, {"measurement": "remaining binding at 1 µM", "setting": "[26]", "result": 96, "unit": "%"}, {"measurement": "remaining binding at 1 µM", "setting": "[27]", "result": 77, "unit": "%"}, {"measurement": "remaining binding at 1 µM", "setting": "[28]", "result": 84, "unit": "%"}, {"measurement": "remaining binding at 1 µM", "setting": "[29]", "result": 99, "unit": "%"}, {"measurement": "remaining binding at 1 µM", "setting": "[30]", "result": 98, "unit": "%"}, {"measurement": "remaining binding at 1 µM", "setting": "[31]", "result": 100, "unit": "%"}, {"measurement": "remaining binding at 1 µM", "setting": "[32]", "result": 81, "unit": "%"}, {"measurement": "remaining binding at 1 µM", "setting": "[33]", "result": 89, "unit": "%"}, {"measurement": "remaining binding at 1 µM", "setting": "[34]", "result": 92, "unit": "%"}, {"measurement": "remaining binding at 1 µM", "setting": "[35]", "result": 69, "unit": "%"}, {"measurement": "remaining binding at 1 µM", "setting": "[36]", "result": 90, "unit": "%"}]}
